pIC50: −log10 of the molar value.
Experiments:
[1] = target: T1, full-length beta-Catenin (Uniprot ID P35222) (Homo sapiens, UniProt P35222); test: Fluorescence polarization IC50 (beta-catenin / 5FAM-TCF4 10-53 competition); assay type: binding; details: fluorescence polarization; read-out: beta-Catenin FP IC50
T1 construct: 10 nM full-length beta-Catenin (Uniprot ID P35222)
T1 sequence (P35222 1-781): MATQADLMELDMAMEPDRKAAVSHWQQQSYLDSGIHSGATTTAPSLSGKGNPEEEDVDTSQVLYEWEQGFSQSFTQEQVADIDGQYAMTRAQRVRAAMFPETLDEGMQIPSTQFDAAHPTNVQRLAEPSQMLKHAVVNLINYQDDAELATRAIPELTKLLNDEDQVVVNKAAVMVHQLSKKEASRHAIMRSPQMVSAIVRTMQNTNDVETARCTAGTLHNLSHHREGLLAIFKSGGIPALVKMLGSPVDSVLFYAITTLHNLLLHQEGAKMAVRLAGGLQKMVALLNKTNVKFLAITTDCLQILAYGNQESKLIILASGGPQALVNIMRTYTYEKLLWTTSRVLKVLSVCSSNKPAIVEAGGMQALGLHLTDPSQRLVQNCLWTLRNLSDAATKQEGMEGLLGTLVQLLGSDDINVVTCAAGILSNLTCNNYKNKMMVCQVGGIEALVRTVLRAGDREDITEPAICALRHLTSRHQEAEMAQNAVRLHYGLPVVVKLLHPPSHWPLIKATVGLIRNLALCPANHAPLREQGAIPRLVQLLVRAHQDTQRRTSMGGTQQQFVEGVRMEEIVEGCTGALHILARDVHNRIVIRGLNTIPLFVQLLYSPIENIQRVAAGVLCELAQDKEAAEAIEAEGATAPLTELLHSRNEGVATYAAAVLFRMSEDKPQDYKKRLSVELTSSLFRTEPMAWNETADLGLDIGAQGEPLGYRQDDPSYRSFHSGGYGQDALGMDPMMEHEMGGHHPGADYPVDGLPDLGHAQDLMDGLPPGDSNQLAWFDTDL

[2] = target: T2, beta-catenin/TCF4 engagement (Homo sapiens, UniProt P35222); test: Nano-BRET target engagement assay (B-cat-Halo & TCF4-Luc in HEK293 cells); assay type: cell-based; details: read-out: NanoBRET Abs IC50
T2 construct: expressed in transfected cells; host or cells: HEK293
T2 sequence (P35222 1-781): T1 sequence (P35222 1-781)

Row | Compound | pIC50 [1] | pIC50 [2]
1 | CC(=O)N1CCC[C@]12CC=CCCCC1(CCCC=CCCCOC(=O)N3CC[C@@](C(=O)N[C@@H](Cc4ccsc4)C(=O)N[C@@H](Cc4csc5ccccc45)C(=O)N[C@H](C(N)=O)C(C)C)(C3)NC(=O)[C@H](CC(C)C)NC(=O)[C@H](Cc3ccccc3)NC(=O)[C@H](C)NC(=O)[C@H](CCC(N)=O)NC(=O)[C@H](Cc3cccc(C(=O)O)c3)NC(=O)[C@H](CC(=O)O)NC1=O)NC(=O)[C@H](CC(C)(C)C)NC(=O)[C@H](CC(=O)O)NC2=O (stereo partly drawn) [I-2055, Ac-PL3-Asp-Npg-B5-Asp-3COOHF-Gln-Ala-Phe-Leu-PyrS2-3Thi-BztA-Val-NH2] | 7.89 | 4.98
2 | CC(=O)N1CCC[C@]12CC=CCCCC1(CCCC=CCCCOC(=O)N3CC[C@@](C(=O)N[C@@H](Cc4ccsc4)C(=O)N[C@@H](Cc4csc5ccccc45)C(=O)N[C@@H](CC(C)C)C(N)=O)(C3)NC(=O)[C@H](CC(C)C)NC(=O)[C@H](Cc3ccccc3)NC(=O)[C@H](C)NC(=O)[C@H](CCC(N)=O)NC(=O)[C@H](Cc3cccc(C(=O)O)c3)NC(=O)[C@H](CC(=O)O)NC1=O)NC(=O)[C@H](CC(C)(C)C)NC(=O)[C@H](CC(=O)O)NC2=O (stereo partly drawn) [I-2056, Ac-PL3-Asp-Npg-B5-Asp-3COOHF-Gln-Ala-Phe-Leu-PyrS2-3Thi-BztA-Leu-NH2] | 7.80 | 5.19
3 | CC(=O)N1CCC[C@]12CC=CCCCC1(CCCC=CCCCOC(=O)N3CC[C@@](C(=O)N[C@@H](Cc4ccccc4C(F)(F)F)C(=O)N[C@@H](Cc4csc5ccccc45)C(=O)N[C@@H](C)C(N)=O)(C3)NC(=O)[C@H](CC(C)C)NC(=O)[C@H](Cc3ccccc3)NC(=O)[C@H](C)NC(=O)[C@H](CC(N)=O)NC(=O)[C@H](Cc3cccc(C(=O)O)c3)NC(=O)[C@H](CC(=O)O)NC1=O)NC(=O)[C@H](CC(C)(C)C)NC(=O)[C@H](CC(=O)O)NC2=O (stereo partly drawn) [I-2058, Ac-PL3-Asp-Npg-B5-Asp-3COOHF-Asn-Ala-Phe-Leu-PyrS2-2F3MeF-BztA-Ala-NH2] | 8.00 | 5.41
4 | CC(=O)N1CCC[C@]12CC=CCCCC1(CCCC=CCCCOC(=O)N3CC[C@@](C(=O)N[C@@H](Cc4ccccc4C(F)(F)F)C(=O)N[C@@H](Cc4csc5ccccc45)C(=O)N[C@@H](C)C(N)=O)(C3)NC(=O)[C@H](CC(C)C)NC(=O)[C@H](Cc3ccccc3)NC(=O)[C@H](C)NC(=O)[C@H](CO)NC(=O)[C@H](Cc3cccc(C(=O)O)c3)NC(=O)[C@H](CC(=O)O)NC1=O)NC(=O)[C@H](CC(C)(C)C)NC(=O)[C@H](CC(=O)O)NC2=O (stereo partly drawn) [I-2059, Ac-PL3-Asp-Npg-B5-Asp-3COOHF-Ser-Ala-Phe-Leu-PyrS2-2F3MeF-BztA-Ala-NH2] | 7.42 | 5.32
5 | CC(=O)N1CCC[C@]12CC=CCCCC1(CCCC=CCCCOC(=O)N3CC[C@@](C(=O)N[C@@H](Cc4ccccc4C(F)(F)F)C(=O)N[C@@H](Cc4csc5ccccc45)C(=O)N[C@@H](C)C(N)=O)(C3)NC(=O)[C@H](CC(C)C)NC(=O)[C@H](Cc3ccccc3)NC(=O)[C@H](C)NC(=O)[C@H]([C@@H](C)O)NC(=O)[C@H](Cc3cccc(C(=O)O)c3)NC(=O)[C@H](CC(=O)O)NC1=O)NC(=O)[C@H](CC(C)(C)C)NC(=O)[C@H](CC(=O)O)NC2=O (stereo partly drawn) [I-2060, Ac-PL3-Asp-Npg-B5-Asp-3COOHF-Thr-Ala-Phe-Leu-PyrS2-2F3MeF-BztA-Ala-NH2] | 7.25 | 5.02
6 | CC(=O)N1CCC[C@]12CC=CCCCC1(CCCC=CCCCOC(=O)N3CC[C@@](C(=O)N[C@@H](Cc4ccccc4Cl)C(=O)N[C@@H](Cc4csc5ccccc45)C(=O)N[C@@H](CCS(C)(=O)=O)C(N)=O)(C3)NC(=O)[C@H](CC(C)C)NC(=O)[C@H](Cc3ccccc3)NC(=O)[C@H](C)NC(=O)[C@H](C)NC(=O)[C@H](Cc3cccc(C(=O)O)c3)NC(=O)[C@H](CC(=O)O)NC1=O)NC(=O)[C@H](CC(C)(C)C)NC(=O)[C@H](CC(=O)O)NC2=O (stereo partly drawn) [I-2062, Ac-PL3-Asp-Npg-B5-Asp-3COOHF-Ala-Ala-Phe-Leu-PyrS2-2C1F-BztA-Met2O-NH2] | 7.39 | 5.52
7 | CC(=O)N1CCC[C@]12CC=CCCCC1(CCCC=CCCCOC(=O)N3CC[C@@](C(=O)N[C@@H](Cc4ccccc4C(F)(F)F)C(=O)N[C@@H](Cc4csc5ccccc45)C(=O)N[C@@H](CCS(C)(=O)=O)C(N)=O)(C3)NC(=O)[C@H](CC(C)C)NC(=O)[C@H](Cc3ccccc3)NC(=O)[C@H](C)NC(=O)[C@H](C)NC(=O)[C@H](Cc3cccc(C(=O)O)c3)NC(=O)[C@H](CC(=O)O)NC1=O)NC(=O)[C@H](CC(C)(C)C)NC(=O)[C@H](CC(=O)O)NC2=O (stereo partly drawn) [I-2063, Ac-PL3-Asp-Npg-B5-Asp-3COOHF-Ala-Ala-Phe-Leu-PyrS2-2F3MeF-BztA-Met2O-NH2] | 7.25 | 5.46
8 | CC(=O)N1CCC[C@]12CC=CCCCC1(CCCC=CCCCOC(=O)N3CC[C@@](C(=O)N[C@@H](Cc4ccsc4)C(=O)N[C@@H](Cc4csc5ccccc45)C(=O)N[C@@H](C)C(N)=O)(C3)NC(=O)[C@H](CC(C)C)NC(=O)[C@H](Cc3ccccc3)NC(=O)[C@H](C)NC(=O)[C@H](CCS(C)(=O)=O)NC(=O)[C@H](Cc3cccc(C(=O)O)c3)NC(=O)[C@H](CC(=O)O)NC1=O)NC(=O)[C@H](CC(C)(C)C)NC(=O)[C@H](CC(=O)O)NC2=O (stereo partly drawn) [I-2064, Ac-PL3-Asp-Npg-B5-Asp-3COOHF-Met2O-Ala-Phe-Leu-PyrS2-3Thi-BztA-Ala-NH2] | 7.80 | 4.93
9 | CC(=O)N1CCC[C@]12CC=CCCCC1(CCCC=CCCCOC(=O)N3CC[C@@](C(=O)N[C@@H](Cc4ccccc4)C(=O)N[C@@H](Cc4csc5ccccc45)C(=O)N[C@@H](C)C(N)=O)(C3)NC(=O)[C@H](CC(N)=O)NC(=O)[C@H](Cc3ccccc3)NC(=O)[C@H](C)NC(=O)[C@H](CCCCNC(C)C)NC(=O)[C@H](CCC(N)=O)NC(=O)[C@H](CC(=O)O)NC1=O)NC(=O)[C@H](CC1CCCCC1)NC(=O)[C@H](CC(N)=O)NC2=O (stereo partly drawn) [I-2065, Ac-PL3-Asn-Cha-B5-Asp-Gln-iPrLys-Ala-Phe-Asn-PyrS2-Phe-BztA-Ala-NH2] | 6.84 | < 4.70
10 | CC(=O)N1CCC[C@]12CC=CCCCC1(CCCC=CCCCOC(=O)N3CC[C@@](C(=O)N[C@@H](Cc4ccccc4)C(=O)N[C@@H](Cc4csc5ccccc45)C(=O)N[C@@H](CCO)C(N)=O)(C3)NC(=O)[C@H](CC(N)=O)NC(=O)[C@H](Cc3ccccc3)NC(=O)[C@H](C)NC(=O)[C@H](CCC(N)=O)NC(=O)[C@H](CCC(N)=O)NC(=O)[C@H](CC(=O)O)NC1=O)NC(=O)[C@H](CC1CCCCC1)NC(=O)[C@H](CC(N)=O)NC2=O (stereo partly drawn) [I-2067, Ac-PL3-Asn-Cha-B5-Asp-Gln-Gln-Ala-Phe-Asn-PyrS2-Phe-BztA-Hse-NH2] | 6.74 | < 4.70
11 | CC(=O)N1CCC[C@]12CC=CCCCC1(CCCC=CCCCOC(=O)N3CC[C@@](C(=O)N[C@@H](Cc4ccccc4)C(=O)N[C@@H](Cc4csc5ccccc45)C(=O)N[C@@H](Cc4ccccc4)C(N)=O)(C3)NC(=O)[C@H](CC(N)=O)NC(=O)[C@H](Cc3ccccc3)NC(=O)[C@H](C)NC(=O)[C@H](CCCCNC(C)C)NC(=O)[C@H](CCC(N)=O)NC(=O)[C@H](CC(=O)O)NC1=O)NC(=O)[C@H](CC1CCCCC1)NC(=O)[C@H](CC(N)=O)NC2=O (stereo partly drawn) [I-2068, Ac-PL3-Asn-Cha-B5-Asp-Gln-iPrLys-Ala-Phe-Asn-PyrS2-Phe-BztA-Phe-NH2] | 6.47 | < 4.70
12 | CC(=O)N1CCC[C@]12CC=CCCCC1(CCCC=CCCCOC(=O)N3CC[C@@](C(=O)N[C@@H](Cc4ccccc4)C(=O)N[C@@H](Cc4csc5ccccc45)C(=O)N[C@@H](C)C(N)=O)(C3)NC(=O)[C@H](CC(N)=O)NC(=O)[C@H](Cc3ccccc3)NC(=O)[C@H](C)NC(=O)[C@H](Cc3c[nH]cn3)NC(=O)[C@H](CCC(N)=O)NC(=O)[C@H](CC(=O)O)NC1=O)NC(=O)[C@H](CC1CCCCC1)NC(=O)[C@H](CC(N)=O)NC2=O (stereo partly drawn) [I-2069, Ac-PL3-Asn-Cha-B5-Asp-Gln-His-Ala-Phe-Asn-PyrS2-Phe-BztA-Ala-NH2] | 6.59 | < 4.70
13 | CC(=O)N1CCC[C@]12CC=CCCCC1(CCCC=CCCCOC(=O)N3CC[C@@](C(=O)N[C@@H](Cc4ccccc4)C(=O)N[C@@H](Cc4csc5ccccc45)C(=O)N[C@@H](C)C(N)=O)(C3)NC(=O)[C@H](CC(N)=O)NC(=O)[C@H](Cc3ccccc3)NC(=O)[C@H](C)NC(=O)[C@H](CCC(N)=O)NC(=O)[C@H](CCC(N)=O)NC(=O)[C@H](CC(=O)O)NC1=O)NC(=O)[C@H](CC1CCCCC1)NC(=O)[C@H](CC(N)=O)NC2=O (stereo partly drawn) [I-2070, Ac-PL3-Asn-Cha-B5-Asp-Gln-Gln-Ala-Phe-Asn-PyrS2-Phe-BztA-Ala-NH2] | 6.72 | < 4.70
